According to patent publication US20080132505A1 (Glaxo Group Limited, priority 2004, published 2008):
Where two headings read alike, the source gives them in different places.

Molecular target: human cannabinoid CB2 receptor (Homo sapiens, UniProt P34972)
Test: Cannabinoid CB2 receptor agonist activity (yeast reporter assay, FDGlu fluorescence)
Assay type: cell-based
Conditions: for Emax: read-out: efficacy value (Emax relative to HU210) at the cloned human cannabinoid CB2 receptor
Procedure: Determination of Cannabinoid CB2 Receptor Agonist Activity
The cannabinoid CB2 receptor agonist activity of the compounds of formula (I)-(IV) was determined in accordance with the following experimental method.
Yeast (Saccharomyces cerevisiae) cells expressing the human cannabinoid CB2 receptor were generated by integration of an expression cassette into the ura3 chromosomal locus of yeast strain MMY23. This cassette consisted of DNA sequence encoding the human CB2 receptor flanked by the yeast GPD promoter to the 5′ end of CB2 and a yeast transcriptional terminator sequence to the 3′ end of CB2. MMY23 expresses a yeast/mammalian chimeric G-protein alpha subunit in which the C-terminal 5 amino acids of Gpa1 are replaced with the C-terminal 5 amino acids of human Gαi3 (as described in Brown et al. (2000), Yeast 16:11-22). Cells were grown at 30° C. in liquid Synthetic Complete (SC) yeast media (Guthrie and Fink (1991), Methods in Enzymology, Vol. 194) lacking uracil, tryptophan, adenine and leucine to late logarithmic phase (approximately 6 OD600/ml).
Agonists were prepared as 10 mM stocks in DMSO. […] Agonist solutions in DMSO (1% final assay volume) were transferred into black, clear bottom, microtitre plates from NUNC (96- or 384-well). Cells were suspended at a density of 0.2 OD600/ml in SC media lacking histidine, uracil, tryptophan, adenine and leucine and supplemented with 10 mM 3-aminotriazole, 0.1M sodium phosphate pH 7.0, and […] fluorescein di-β-D-glucopyranoside (FDGlu). This mixture (50 ul per well for 384-well plates, 200 ul per well for 96-well plates) was added to agonist in the assay plates (Multidrop 384, Labsystems). After incubation at 30° C. for 24 hours, fluorescence resulting from degradation of FDGlu to fluorescein due to exoglucanase, an endogenous yeast enzyme produced during agonist-stimulated cell growth, was determined using a Spectrofluor microtitre plate reader (Tecan; excitation wavelength: 485 nm; emission wavelength: 535 nm). Fluorescence was plotted against compound concentration and iteratively curve fitted using a four parameter fit to generate a concentration effect value. Efficacy (Emax) was calculated from the equation
where Max[compound X] and Min[compound X] are the fitted maximum and minimum respectively from the concentration effect curve for compound X, and Max[HU210] and Min[HU210] are the fitted maximum and minimum respectively from the concentration effect curve for (6aR,10aR)-3-(1,1′-Dimethylheptyl)-6a,7,10,10a-tetrahydro-1-hydroxy-6,6-dimethyl-6H-dibenzo[b,d]pyran-9-methanol (HU210; available from Tocris). Equieffective molar ratio (EMR) values were calculated from the equation
Where EC50 [compound X] is the EC50 of compound X and EC50 [HU210] is the EC50 of HU210.

[1] = EC50 value at the cloned human cannabinoid CB2 receptor

human cannabinoid CB2 receptor, sequence (P34972 whole entry): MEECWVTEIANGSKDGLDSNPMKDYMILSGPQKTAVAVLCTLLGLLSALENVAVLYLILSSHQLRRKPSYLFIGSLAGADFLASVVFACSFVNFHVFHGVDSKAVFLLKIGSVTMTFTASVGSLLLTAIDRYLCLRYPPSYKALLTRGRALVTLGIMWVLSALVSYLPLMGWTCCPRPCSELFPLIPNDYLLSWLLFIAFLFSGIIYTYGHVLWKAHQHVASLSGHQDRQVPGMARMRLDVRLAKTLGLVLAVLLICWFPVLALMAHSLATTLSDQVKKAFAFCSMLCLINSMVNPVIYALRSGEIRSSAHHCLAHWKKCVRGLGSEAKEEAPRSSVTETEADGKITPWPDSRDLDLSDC

EC50 (read-out: EC50 value at the cloned human cannabinoid CB2 receptor) [nM]	SMILES	EC50 [1] [nM]	Emax [%]
–	COc1cccc(Nc2ncc(C(=O)NC3CCCC3)c(C(F)(F)F)n2)c1 [Example 76, 3-Methoxyphenylamino-4-trifluoromethyl-pyrimidine-5-carboxylic acid cyclopentylamide]	300 to 1000	> 50
–	O=C(NC1CCCC1)c1cnc(Nc2cccc(Cl)c2Cl)nc1C(F)(F)F [Example 77, 2,3-Dichlorophenylamino-4-trifluoromethyl-pyrimidine-5-carboxylic acid cyclopentylamide]	300 to 1000	> 50
–	O=C(c1cnc(Nc2cccc(F)c2)nc1C(F)(F)F)N1CCCCC1 [Example 78, 1-[2-(3-fluorophenylamino)-4-trifluoromethyl-pyrimidin-5-yl]-1-piperidin-1-yl-methanone]	300 to 1000	> 50
–	CS(=O)(=O)N1CCN(C(=O)c2cnc(Nc3cccc(Cl)c3)nc2C(F)(F)F)CC1 [Example 79, 1-[2-(3-chlorophenylamino)-4-trifluoromethyl-pyrimidin-5-yl]-1-(4-methanesulfonyl-piperazin-1-yl)-methanone]	300 to 1000	> 50
–	O=C(NC[C@H]1CCCO1)c1cnc(Nc2cccc(Br)c2)nc1C(F)(F)F [Example 80, 2-(3-bromophenylamino)-4-trifluoromethyl-pyrimidine-5-carboxylic acid [R-1-(tetrahydrofuran-2-yl)methyl]-amide]	300 to 1000	> 50
–	O=C(NC1CCS(=O)(=O)CC1)c1cnc(Nc2cccc(Cl)c2Cl)nc1C(F)(F)F [Example 82, 2-(2,3-Dichlorophenylamino)-4-trifluoromethyl-pyrimidine-5-carboxylic acid (1,1-dioxo-tetrahydro-2H-thiopyran-4-yl)-amide]	300 to 1000	> 50
–	O=C(NCC1CC1)c1cnc(Nc2cccc(F)c2)nc1C(F)(F)F [Example 83, 2-(3-Fluoro-phenylamino)-4-trifluoromethyl-pyrimidine-5-carboxylic acid cyclopropylmethyl-amide]	300 to 1000	> 50
–	O=C(NCC1CC1)c1cnc(Nc2cccc(Cl)c2)nc1C(F)(F)F [Example 84, 2-(3-Chloro-phenylamino)-4-trifluoromethyl-pyrimidine-5-carboxylic acid cyclopropylmethyl-amide]	300 to 1000	> 50
–	O=C(c1cnc(Nc2cc(Cl)ccc2Cl)nc1C(F)(F)F)N1CCCCC1 [Example 85, 1-[2-(2,5-Dichloro-phenylamino)-4-tri-fluoromethyl-pyrimidin-5-yl]-1-piperidin-1-yl-methanone]	300 to 1000	> 50
–	O=C(NCC1(O)CCOCC1)c1cnc(Nc2cccc(Br)c2)nc1C(F)(F)F [Example 87, 2-(3-Bromophenyl-amino)-4-trifluoromethyl-pyrimidine-5-carboxylic acid (4-hydroxytetrahydropyran-4-ylmethyl)amide]	300 to 1000	> 50
–	O=C(NCC1CCCCC1)c1cnc(Nc2cc(C(F)(F)F)cc(C(F)(F)F)c2)nc1C(F)(F)F [Example 88, 2-(3,5-Bis-trifluoromethyl-phenylamino)-4-trifluoromethyl-pyrimidine-5-carboxylic acid cyclohexylmethyl-amide]	300 to 1000	> 50
–	N#Cc1cc(C#N)cc(Nc2ncc(C(=O)NCC3CCCCC3)c(C(F)(F)F)n2)c1 [Example 89, 2-(3,5-Dicyano-phenylamino)-4-trifluoromethyl-pyrimidine-5-carboxylic acid cyclohexylmethyl-amide]	300 to 1000	> 50
–	O=C(NCC1CCCCC1)c1cnc(Nc2cc(F)cc(C(F)(F)F)c2)nc1C(F)(F)F [Example 90, 2-(3-Fluoro-5-trifluoromethyl-phenylamino)-4-trifluoromethyl-pyrimidine-5-carboxylic acid cyclohexylmethyl-amide]	300 to 1000	> 50
–	O=C(NCC1CCCCC1)c1cnc(Nc2cc(Br)cc(C(F)(F)F)c2)nc1C(F)(F)F [Example 91, 2-(3-Bromo-5-trifluoromethyl-phenylamino)-4-trifluoromethyl-pyrimidine-5-carboxylic acid cyclohexylmethyl-amide]	300 to 1000	> 50
–	Cc1cccc(Nc2ncc(C(=O)NCC3CCCCC3)c(C(F)(F)F)n2)c1Cl [Example 92, 2-(2-Chloro-3-methyl-phenylamino)-4-trifluoromethyl-pyrimidine-5-carboxylic acid cyclohexylmethyl-amide]	300 to 1000	> 50
–	Cc1c(Cl)cccc1Nc1ncc(C(=O)NCC2CCCCC2)c(C(F)(F)F)n1 [Example 93, 2-(3-Chloro-2-methyl-phenylamino)-4-trifluoromethyl-pyrimidine-5-carboxylic acid cyclohexylmethyl-amide]	300 to 1000	> 50
–	Cc1cc(Cl)ccc1Nc1ncc(C(=O)NCC2CCCCC2)c(C(F)(F)F)n1 [Example 94, 2-(4-Chloro-2-methyl-phenylamino)-4-trifluoromethyl-pyrimidine-5-carboxylic acid cyclohexylmethyl-amide]	300 to 1000	> 50
–	Cc1cc(Cl)cc(C)c1Nc1ncc(C(=O)NCC2CCCCC2)c(C(F)(F)F)n1 [Example 95, 2-(4-Chloro-2,6-dimethyl-phenylamino)-4-trifluoromethyl-pyrimidine-5-carboxylic acid cyclohexylmethyl-amide]	300 to 1000	> 50
–	O=C(NCC1CCCC1)c1cnc(Nc2cc(F)cc(F)c2)nc1C(F)(F)F [Example 96, 2-(3,5-Difluoro-phenylamino)-4-trifluoromethyl-pyrimidine-5-carboxylic acid cyclopentylmethyl-amide]	300 to 1000	> 50
300 to 1000	O=C(NCC1CCCC1)c1cnc(Nc2ccc(C(F)(F)F)c(F)c2)nc1C(F)(F)F [Example 97, 2-(4-Trifluoromethyl-3-fluorophenylamino)-4-trifluoromethyl-pyrimidine-5-carboxylic acid cyclopentylmethyl-amide]	–	–
–	O=C(NCC1CCOCC1)c1cnc(Nc2ccc(F)cc2F)nc1C(F)(F)F [Example 98, 2-(2,4-Difluorophenylamino)-4-trifluoromethyl-pyrimidine-5-carboxylic acid (tetrahydro-pyran-4-ylmethyl)-amide]	300 to 1000	> 50
–	O=C(NCC1CCOCC1)c1cnc(Nc2ccc(Cl)cc2F)nc1C(F)(F)F [Example 99, 2-(2-Fluoro-4-chlorophenylamino)-4-trifluoromethyl-pyrimidine-5-carboxylic acid (tetrahydro-pyran-4-ylmethyl)-amide]	300 to 1000	> 50
–	O=C(NCC1CCCCC1)c1cnc(Nc2ccc(F)cc2C(F)(F)F)nc1C(F)(F)F [Example 100, 2-(2-Trifluoromethyl-4-fluorophenylamino)-4-trifluoromethyl-pyrimidine-5-carboxylic acid cyclohexylmethyl-amide]	300 to 1000	> 50
–	O=C(NCC1CCC1)c1cnc(Nc2ccc(F)cc2C(F)(F)F)nc1C(F)(F)F [Example 101, 2-(2-Trifluoromethyl-4-fluorophenylamino)-4-trifluoromethyl-pyrimidine-5-carboxylic acid cyclobutylmethyl-amide]	300 to 1000	> 50
